Like-named read-outs stand apart in the source and are kept apart here.
How the values were obtained:
Assay in all cases: CellTiter-Glo, hematologic malignancy panel
Assay type in all cases: cell-based
AML-193 = tested on: AML-193
From the text: (§1) Identification of tumor types that are the most sensitive to the KSP inhibitors of the present invention can be accomplished using an unbiased approach that uses several cell-based assays. The assays chosen were as follows: • CellTiter-Glo®. This is an assay designed to measure ATP concentration in a cell culture, and can be correlated to cell number. Briefly CellTiter-Glo® (Promega Corporation) is a homogeneous method using the single CellTiter-Glo® reagent to detect ATP wherein ATP in the assay drives the activity of a thermostable luciferase to create a luminescent signal which can then be measured and correlated with the number of viable cells. Briefly, for adherent cells, 1,000 to 5,000 cells/well were plated in 96-well plates (100 μl/well) and let to adhere for 24 hours before being treated with drug. For non-adherent cells, 1,000 to 10,000 cells/well were plated in 96-well plates (100 μl/well) and immediately treated with drug. Drug dilutions were prepared in DMSO at 1000 times the final concentration. These dilutions were then diluted 1/100 in growth media before being added to the cells (11 μl/well) to achieve the desired final concentration. After 48 h in a 37° C. tissue culture incubator, the plates were processed for the CellTiter-Glo®assay according to the manufacturer's instructions. Protocol for a 72 hour cell proliferation assay: The 72 hour assay was performed the same way as the 48 hour assay except for the following modifications: For adherent cells, 500 to 5,000 cells/well were plated in 96-well plates (90 μl/well cell growth media) and left to adhere for 24 hours before being treated with drug. For non-adherent cells, 1,000 to 10,000 cells/well were plated in 96-well plates (90 μl/well cell growth media) and immediately treated with drug. Data values presented represent the concentration of test compound required for a 50% reduction in growth. • LDH release. The Cytotoxicity Detection KitPLUS (LDH) assay (Roche Diagnostics, Manheim, Germany) measures the amount of LDH released in the media by dying cells; LDH catalyzes the conversion of lactate into pyruvate. The enzymatic reaction is coupled to a chemical reaction that uses a tetrazolium salt to form a formazan that is red and can be detected by its absorbance at 490 nm. This assay measures the amount of cell death after drug treatment. Cells were plated at 10,000 cells/well in 96-well plates (100 μl/well). Adherent cells were let to adhere for 24 hours before being treated with drug, whereas non-adherent cells were immediately treated with drug. Drug dilutions were prepared in DMSO at 1000 times the final concentration. These dilutions were then diluted 1/100 in growth media before being added to the cells (11 μl/well) to achieve the desired final concentration. After 48 h in a 37° C. tissue culture incubator, the plates were processed for the Cytotoxicity Detection KitPLUS (LDH) assay according to the manufacturer's instructions. The media only values were subtracted from all the data points before analysis. Data values presented correspond to the compound concentration wherein LDH output is at half maximal level. • Caspase-Glo® 3/7. The Caspase-Glo® 3/7 Assay (Promega Corporation) is a homogeneous luminescent assay that measures caspase-3/7 activities. The assay provides a proluminescent caspase-3/7 DEVD-aminoluciferin substrate and a thermostable luciferase in a reagent optimized for caspase-3/7 activity, luciferase activity and cell lysis. Adding the single Caspase-Glo® 3/7 Reagent results in cell lysis, followed by caspase cleavage of the substrate. This liberates free aminoluciferin, which is consumed by the luciferase, generating a luminescent signal. The signal is proportional to caspase-3/7 activity. Data values presented correspond to the compound concentration wherein caspase 3/7 activity is at half maximal level. […]

KM-H2 = conditions: HL; for GI50: Homo sapiens
From the text: as §1

KMS26 = conditions: for GI50: KMS-26, MM
From the text: as §1

MOLM13-Luc = conditions: AML
From the text: as §1

SR = conditions: NHL; for GI50: Homo sapiens
From the text: as §1

U937 = conditions: for GI50: Homo sapiens, U-937, NHL
From the text: as §1

[1] = GI50 in nM, read-out: Log(GI50) (converted)

## CC(C)(C)[C@H](c1nc(-c2cc(F)ccc2F)cn1Cc1ccccc1)N(CC[C@H](N)CF)C(=O)CO [Compound IIa]
AML-193
  Differential vs mean Log(GI50): 0.489
AML-193; [1]
  GI50: 0.11 nM
AML-193; read-out: GI50
  GI50: 0.11 nM
KM-H2
  Differential vs mean Log(GI50): 0.162
KM-H2; [1]
  GI50: 0.233 nM
KM-H2; read-out: GI50
  GI50: 0.23 nM
KMS26; [1]
  GI50: 0.24 nM
KMS26; read-out: GI50
  GI50: 0.24 nM
KMS26; MM
  Differential vs mean Log(GI50): 0.150
MOLM13-Luc
  Differential vs mean Log(GI50): 0.175
MOLM13-Luc; [1]
  GI50: 0.226 nM
MOLM13-Luc; read-out: GI50
  GI50: 0.23 nM
SR; [1]
  GI50: 0.11 nM
SR; read-out: GI50
  GI50: 0.11 nM
SR
  Differential vs mean Log(GI50): 0.487
U937; [1]
  GI50: 0.2 nM
U937; read-out: GI50
  GI50: 0.2 nM
U937; NHL
  Differential vs mean Log(GI50): 0.229
